Columns and labels:
Dirofilaria = test: Effective plasma rate of ivermectin established by the applicant; format: in vivo
Text: Thus, the formulations according to the present invention provide a long term protection, e.g., at least 6 months for the collar, strip collar, or medallion formulation against infections caused by parasites.

Dirofilaria larvae = conditions: cited from earlier work
[1] = beagle dogs, cited from earlier work
[2] = 14-week oral, cited from earlier work
[3] = estimated from reports from non recommended use; cited from earlier work

For ivermectin, the “Effective rate of ivermectin in the plasma” value (Dirofilaria) is given as “around 0.1 ng/mL”, the “Effective rate of ivermectin in the plasma” value (Dirofilaria larvae; Cunningham C P et al., Am. J. Vet. Res., 2006) is given as at least 0.2 ng/mL and the “Effect on one month aged Dirofilaria larvae” value (Dirofilaria larvae; ivermectin per se at 6 mcg/kg) is given as “able to kill efficiency one month aged Dirofilaria larvae”. The “Time course of H2B1a concentration in plasma” value ([1]; oral 0.5 and 2.0 mg/kg bw) was “reached steady-state after about three weeks”, the “Average increase in plasma levels on a four-fold increase in the dose” value ([1]; oral 0.5 vs 2.0 mg/kg bw) was “eight-fold increase” and the “Severe findings, dogs killed prior to the end of the study” value ([2]; 2.0 mg/kg bw group, four dogs) was “tremors, ataxia, anorexia and dehydration”. For the same substance, the Findings observed ([2]; 1.0 and 2.0 mg/kg bw, beagle dogs) was “mydriasis and slight weight loss”, the “No Observable Effect Level (NOEL)” value ([2]; beagle dogs) was 0.5 mg/kg bw and the “Share of collie dogs highly sensitive to ivermectin” value [3] was “Approximately 30%”.

From patent publication US9393193B2, “Compositions for controlling heartworm infestation” (CEVA SANTA ANIMALE, priority 2010, dated 2016)
